Assay in all cases: relative viability (nuclei count vs DMSO), 5 days (fraction); higher = more cells survive
Compound in assay [1]: NCC(=O)Nc1ccc(-n2nc(C(F)(F)F)cc2-c2ccc3c(ccc4ccccc43)c2)cc1 + Cc1nc(NC(=O)N2CCC[C@H]2C(N)=O)sc1-c1ccnc(C(C)(C)C(F)(F)F)c1 [Alpelisib] (partner 2 µM)
A digest of the protocol:
(§1)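 A single step with final 0.05% Triton X-100, 1% formaldehyde and 1 ug/ml Hoechst fixed the cells and stained nuclei 5 days after treatment. Lung cancer cell lines in 1536-well plates had been treated by pin tool the day after seeding with one drug alone or a fixed anchor-drug dose plus five library-drug doses (not always all listed) in √10 steps, and nuclei were counted on 4× images. Relative viability is the ratio of nuclei in treated wells to nuclei in vehicle wells, taken as the median of duplicate plates.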

Compound in the assay “kb NB 142-70 + OSI-027”: C1CSC2=C(C(=O)N1)SC3=C2C=C(C=C3)O [kb NB 142-70] + COc1cccc2cc(-c3nc([C@H]4CC[C@H](C(=O)O)CC4)n4ncnc(N)c34)[nH]c12 [OSI-027] (partner 0.5 µM)
Put shortly:
as §1

Compound in the assay “kb NB 142-70 + AZD7762”: C1CSC2=C(C(=O)N1)SC3=C2C=C(C=C3)O [kb NB 142-70] + NC(=O)Nc1cc(-c2cccc(F)c2)sc1C(=O)N[C@H]1CCCNC1 [AZD7762] (partner 0.2 µM)
Put shortly:
as §1

Compound in assay [2]: NCC(=O)Nc1ccc(-n2nc(C(F)(F)F)cc2-c2ccc3c(ccc4ccccc43)c2)cc1 + CCNC(=O)c1noc(-c2cc(C(C)C)c(O)cc2O)c1-c1ccc(CN2CCOCC2)cc1 [Luminespib] (partner 0.01 µM)
Put shortly:
as §1

Compound in assay [3]: C1CSC2=C(C(=O)N1)SC3=C2C=C(C=C3)O [kb NB 142-70] + Cc1cc(Nc2cc(N3CCN(C)CC3)nc(Sc3ccc(NC(=O)C4CC4)cc3)n2)n[nH]1 [Tozasertib] (partner 0.1 µM)
A digest of the protocol: as §1

NCI-H2405: the relative viability in assay [1] (first compound 0.02 µM) was found to be 0.851; in assay [1] (first compound 0.06325 µM), 0.826; in assay [1] (first compound 0.2 µM), 0.831; in assay [1] (first compound 0.6325 µM) it was 0.782; in assay [1] (first compound 2 µM), 0.923; in the assay with kb NB 142-70 + OSI-027 (first compound 0.1 µM), 0.652. In addition, the relative viability in the assay with kb NB 142-70 + OSI-027 (first compound 1 µM) worked out at 0.615; in the assay with kb NB 142-70 + OSI-027 (first compound 3.162 µM), 0.546; with kb NB 142-70 + AZD7762 (first compound 0.1 µM), 0.792; with kb NB 142-70 + AZD7762 (first compound 1 µM) it was 0.769; with kb NB 142-70 + AZD7762 (first compound 3.162 µM), 0.609; in assay [2] (first compound 0.02 µM) it was 0.686. For the same cell line, the relative viability stood at 0.74 in assay [2] (first compound 0.06325 µM); 0.606 in assay [2] (first compound 0.2 µM); 0.732 in assay [2] (first compound 0.6325 µM); 0.746 in assay [2] (first compound 2 µM); 0.785 in assay [3] (first compound 0.1 µM); 0.695 in assay [3] (first compound 1 µM). Also, in assay [3] (first compound 3.162 µM), the relative viability stood at 0.652.

NCI-H322M: the relative viability in assay [1] (first compound 0.02 µM) worked out at 0.756; in assay [1] (first compound 0.06325 µM), 0.772; in assay [1] (first compound 0.2 µM), 0.824; in assay [1] (first compound 0.6325 µM), 0.657; in assay [1] (first compound 2 µM), 0.831; with kb NB 142-70 + OSI-027 (first compound 0.1 µM), 0.489. Also, the relative viability with kb NB 142-70 + OSI-027 (first compound 1 µM) is 0.551; in the assay with kb NB 142-70 + OSI-027 (first compound 3.162 µM) it was 0.498; in the assay with kb NB 142-70 + AZD7762 (first compound 0.1 µM) it was 0.634; in the assay with kb NB 142-70 + AZD7762 (first compound 1 µM) it was 0.707; in the assay with kb NB 142-70 + AZD7762 (first compound 3.162 µM), 0.846; in assay [2] (first compound 0.02 µM), 0.919. In addition, the relative viability came to 0.946 in assay [2] (first compound 0.06325 µM); 0.895 in assay [2] (first compound 0.2 µM); 0.917 in assay [2] (first compound 0.6325 µM); 0.855 in assay [2] (first compound 2 µM); 0.464 in assay [3] (first compound 0.1 µM); 0.519 in assay [3] (first compound 1 µM). Also, in assay [3] (first compound 3.162 µM), the relative viability was found to be 0.45.

Consider NCI-H2170, for which the relative viability in assay [1] (first compound 0.02 µM) worked out at 0.782; in assay [1] (first compound 0.06325 µM) it was 0.716; in assay [1] (first compound 0.2 µM) it was 0.823; in assay [1] (first compound 0.6325 µM) it was 0.886; in assay [1] (first compound 2 µM) it was 0.88; with kb NB 142-70 + OSI-027 (first compound 0.1 µM), 0.699. The relative viability in the assay with kb NB 142-70 + OSI-027 (first compound 1 µM) came out at 0.694; with kb NB 142-70 + OSI-027 (first compound 3.162 µM), 0.588; in the assay with kb NB 142-70 + AZD7762 (first compound 0.1 µM) it was 0.899; in the assay with kb NB 142-70 + AZD7762 (first compound 1 µM), 1.04; with kb NB 142-70 + AZD7762 (first compound 3.162 µM), 0.724; in assay [2] (first compound 0.02 µM) it was 0.738. Moreover, the relative viability in assay [2] (first compound 0.06325 µM) turned out to be 0.7; in assay [2] (first compound 0.2 µM) it was 0.552; in assay [2] (first compound 0.6325 µM), 0.75; in assay [2] (first compound 2 µM) it was 0.616; in assay [3] (first compound 0.1 µM), 0.688; in assay [3] (first compound 1 µM), 0.735. The relative viability in assay [3] (first compound 3.162 µM) was found to be 0.481.

For NCI-H1395, the relative viability in assay [1] (first compound 0.02 µM) is 1.04; in assay [1] (first compound 0.06325 µM), 1.1; in assay [1] (first compound 0.2 µM) it was 1.3; in assay [1] (first compound 0.6325 µM), 1.13; in assay [1] (first compound 2 µM), 1.05; in the assay with kb NB 142-70 + OSI-027 (first compound 0.1 µM), 0.674. Further, the relative viability with kb NB 142-70 + OSI-027 (first compound 1 µM) was 0.757; with kb NB 142-70 + OSI-027 (first compound 3.162 µM), 0.638; with kb NB 142-70 + AZD7762 (first compound 0.1 µM), 0.4; with kb NB 142-70 + AZD7762 (first compound 1 µM) it was 0.428; in the assay with kb NB 142-70 + AZD7762 (first compound 3.162 µM), 0.501; in assay [2] (first compound 0.02 µM) it was 0.615. In addition, the relative viability in assay [2] (first compound 0.06325 µM) was 0.78; in assay [2] (first compound 0.2 µM), 0.678; in assay [2] (first compound 0.6325 µM) it was 0.655; in assay [2] (first compound 2 µM) it was 0.617; in assay [3] (first compound 0.1 µM), 0.724; in assay [3] (first compound 1 µM) it was 0.784. Moreover, the relative viability in assay [3] (first compound 3.162 µM) was found to be 0.729.

As to NCI-H358, the relative viability came out at 0.82 in assay [1] (first compound 0.02 µM); 0.881 in assay [1] (first compound 0.06325 µM); 0.931 in assay [1] (first compound 0.2 µM); 0.821 in assay [1] (first compound 0.6325 µM); 0.939 in assay [1] (first compound 2 µM); 0.669 in the assay with kb NB 142-70 + OSI-027 (first compound 0.1 µM). Also, the relative viability worked out at 0.464 with kb NB 142-70 + OSI-027 (first compound 1 µM); 0.105 with kb NB 142-70 + OSI-027 (first compound 3.162 µM); 0.437 with kb NB 142-70 + AZD7762 (first compound 0.1 µM); 0.44 with kb NB 142-70 + AZD7762 (first compound 1 µM); 0.295 in the assay with kb NB 142-70 + AZD7762 (first compound 3.162 µM); 0.316 in assay [2] (first compound 0.02 µM). Besides, the relative viability in assay [2] (first compound 0.06325 µM) was determined as 0.54; in assay [2] (first compound 0.2 µM) it was 0.37; in assay [2] (first compound 0.6325 µM), 0.323; in assay [2] (first compound 2 µM), 0.259; in assay [3] (first compound 0.1 µM) it was 0.109; in assay [3] (first compound 1 µM) it was 0.0809. For the same cell line, in assay [3] (first compound 3.162 µM), the relative viability is 0.077.

Consider NCI-H838, for which the relative viability worked out at 0.971 in assay [1] (first compound 0.02 µM); 1.01 in assay [1] (first compound 0.06325 µM); 1.12 in assay [1] (first compound 0.2 µM); 0.916 in assay [1] (first compound 0.6325 µM); 0.933 in assay [1] (first compound 2 µM); 0.369 with kb NB 142-70 + OSI-027 (first compound 0.1 µM). The relative viability with kb NB 142-70 + OSI-027 (first compound 1 µM) amounted to 0.386; in the assay with kb NB 142-70 + OSI-027 (first compound 3.162 µM) it was 0.331; with kb NB 142-70 + AZD7762 (first compound 0.1 µM), 0.938; with kb NB 142-70 + AZD7762 (first compound 1 µM) it was 0.925; with kb NB 142-70 + AZD7762 (first compound 3.162 µM), 1; in assay [2] (first compound 0.02 µM), 0.328. Moreover, the relative viability was determined as 0.31 in assay [2] (first compound 0.06325 µM); 0.372 in assay [2] (first compound 0.2 µM); 0.429 in assay [2] (first compound 0.6325 µM); 0.382 in assay [2] (first compound 2 µM); 0.29 in assay [3] (first compound 0.1 µM); 0.249 in assay [3] (first compound 1 µM). For the same cell line, the relative viability in assay [3] (first compound 3.162 µM) is 0.271.

For the cell line CAL-12T, the relative viability in assay [1] (first compound 0.02 µM) was found to be 1.2; in assay [1] (first compound 0.06325 µM), 1.27; in assay [1] (first compound 0.2 µM) it was 1.34; in assay [1] (first compound 0.6325 µM), 1.03; in assay [1] (first compound 2 µM), 1.03; in the assay with kb NB 142-70 + OSI-027 (first compound 0.1 µM), 0.857. Also, the relative viability with kb NB 142-70 + OSI-027 (first compound 1 µM) came out at 0.719; in the assay with kb NB 142-70 + OSI-027 (first compound 3.162 µM) it was 0.444; in the assay with kb NB 142-70 + AZD7762 (first compound 0.1 µM), 0.548; in the assay with kb NB 142-70 + AZD7762 (first compound 1 µM), 0.718; with kb NB 142-70 + AZD7762 (first compound 3.162 µM), 0.704; in assay [2] (first compound 0.02 µM), 0.54. The relative viability in assay [2] (first compound 0.06325 µM) worked out at 0.22; in assay [2] (first compound 0.2 µM), 0.531; in assay [2] (first compound 0.6325 µM) it was 0.536; in assay [2] (first compound 2 µM), 0.463; in assay [3] (first compound 0.1 µM), 0.36; in assay [3] (first compound 1 µM) it was 0.395. In assay [3] (first compound 3.162 µM), the relative viability amounted to 0.267.

The record behind these values is the supplement of paper PMC10307832.
